In US12441768B2, “Compositions and methods for treating endometriosis” (EndoMet Biosciences, Inc., priority 2018, dated 2025):
Where a SMILES comes first, the peptide text is derived from it.

Target: T1, β-catenin (Homo sapiens, UniProt P35222)
T1 sequence (P35222 1-781): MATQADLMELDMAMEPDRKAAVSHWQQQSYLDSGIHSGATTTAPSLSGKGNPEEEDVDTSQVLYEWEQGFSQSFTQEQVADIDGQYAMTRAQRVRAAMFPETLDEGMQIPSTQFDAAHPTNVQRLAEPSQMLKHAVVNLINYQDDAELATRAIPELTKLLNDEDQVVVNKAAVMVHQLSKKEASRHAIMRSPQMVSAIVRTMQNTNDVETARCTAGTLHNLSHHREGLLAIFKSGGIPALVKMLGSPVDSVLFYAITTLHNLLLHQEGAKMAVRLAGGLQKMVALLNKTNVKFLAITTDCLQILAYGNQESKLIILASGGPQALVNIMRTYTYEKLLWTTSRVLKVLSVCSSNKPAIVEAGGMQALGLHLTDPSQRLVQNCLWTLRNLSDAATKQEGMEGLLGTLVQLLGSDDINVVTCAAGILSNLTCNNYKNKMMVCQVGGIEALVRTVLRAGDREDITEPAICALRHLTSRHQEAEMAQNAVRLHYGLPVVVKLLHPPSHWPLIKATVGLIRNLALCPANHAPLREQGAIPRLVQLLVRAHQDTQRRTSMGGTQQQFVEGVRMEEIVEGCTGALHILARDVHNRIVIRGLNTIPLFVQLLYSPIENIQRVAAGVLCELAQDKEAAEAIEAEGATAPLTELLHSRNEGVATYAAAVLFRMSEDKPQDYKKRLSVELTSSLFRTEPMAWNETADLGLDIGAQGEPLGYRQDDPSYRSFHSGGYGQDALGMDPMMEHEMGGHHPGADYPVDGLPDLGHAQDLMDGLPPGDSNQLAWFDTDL
Assay: KD50 measurement using competitive fluorescence polarization (FP) with labelled TCF4
Type: binding
Conditions: fluorescence polarization, β-catenin; for Kd: read-out: β-Cat FP KD
How it was run: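 5 nM labelled TCF4 was combined with 100 nM β-catenin at room temperature, then inhibitor was titrated in serial dilutions from 10 nM to 30 uM. Polarization was read at excitation 470 nm, emission 520 nm; displacement lowers the signal. Three independent experiments.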

Row | SMILES | Kd [nM] | β-Cat FP Hill slope
1 | CCCCCCCCC(=O)N[C@@H](Cc1c[nH]c2ccccc12)C(=O)N(C)[C@@H](C)C(=O)N[C@@H](CCC(N)=O)C(=O)N[C@H]1CCCCNC(=O)CC[C@@H](C(=O)N[C@@H](Cc2c[nH]cn2)C(=O)N[C@H](C(=O)N[C@@H](CCC(N)=O)C(=O)N[C@@H](CCCNC(=N)N)C(=O)N[C@H](C(=O)N[C@@H](Cc2c[nH]c3ccccc23)C(=O)NCC(N)=O)C(C)C)C(C)C)NC(=O)[C@H](CC(=O)O)NC(=O)[C@H](CC(C)C)NC(=O)[C@H](C2CCCCC2)NC1=O [compound 422] (HELM PEPTIDE1{[CCCCCCCCC(=O)[*:2]].W.[meA].Q.K.[O=C([C@@H](N[*:1])C1CCCCC1)[*:2]].L.D.E.H.V.Q.R.V.W.G.[am]}$PEPTIDE1,PEPTIDE1,5:R3-9:R3$$$V2.0) | 400 to 1000 | –
2 | CC[C@H](C)[C@@H]1NC(=O)[C@@H](NC(=O)[C@H](CCC(N)=O)NC(=O)[C@H](C)N(C)C(=O)[C@@H](N)Cc2c[nH]c3ccccc23)CCCNC(=O)CC[C@@H](C(=O)N[C@@H](Cc2c[nH]cn2)C(=O)N[C@H](C(=O)N[C@@H](CCC(N)=O)C(=O)N[C@@H](CCCNC(=N)N)C(=O)N[C@H](C(=O)N[C@@H](Cc2c[nH]c3ccccc23)C(=O)NCC(N)=O)C(C)C)C2CCCCC2)NC(=O)[C@H](CC(=O)O)NC(=O)[C@H](CC(C)C)NC1=O [compound 423] (HELM PEPTIDE1{W.[meA].Q.[Orn].I.L.D.E.H.[O=C([C@@H](N[*:1])C1CCCCC1)[*:2]].Q.R.V.W.G.[am]}$PEPTIDE1,PEPTIDE1,4:R3-8:R3$$$V2.0) | 400 to 1000 | 0.7
3 | CC[C@H](C)[C@@H]1NC(=O)[C@@H](NC(=O)[C@H](CCC(N)=O)NC(=O)[C@H](C)N(C)C(=O)[C@H](Cc2c[nH]c3ccccc23)NC(C)=O)CCCNC(=O)CC[C@@H](C(=O)N[C@@H](Cc2c[nH]cn2)C(=O)N[C@H](C(=O)N[C@@H](CCC(N)=O)C(=O)N[C@@H](CCCNC(=N)N)C(=O)N[C@H](C(=O)N[C@@H](Cc2c[nH]c3ccccc23)C(=O)NCC(N)=O)C(C)C)C2CCCCC2)NC(=O)[C@H](CC(=O)O)NC(=O)[C@H](CC(C)C)NC1=O [compound 424] (HELM PEPTIDE1{[ac].W.[meA].Q.[Orn].I.L.D.E.H.[O=C([C@@H](N[*:1])C1CCCCC1)[*:2]].Q.R.V.W.G.[am]}$PEPTIDE1,PEPTIDE1,5:R3-9:R3$$$V2.0) | < 400 | 0.7
4 | CCCCCCCCC(=O)N[C@@H](Cc1c[nH]c2ccccc12)C(=O)N(C)[C@@H](C)C(=O)N[C@@H](CCC(N)=O)C(=O)N[C@H]1CCCNC(=O)CC[C@@H](C(=O)N[C@@H](Cc2c[nH]cn2)C(=O)N[C@H](C(=O)N[C@@H](CCC(N)=O)C(=O)N[C@@H](CCCNC(=N)N)C(=O)N[C@H](C(=O)N[C@@H](Cc2c[nH]c3ccccc23)C(=O)NCC(N)=O)C(C)C)C2CCCCC2)NC(=O)[C@H](CC(=O)O)NC(=O)[C@H](CC(C)C)NC(=O)[C@H]([C@@H](C)CC)NC1=O [compound 425] (HELM PEPTIDE1{[CCCCCCCCC(=O)[*:2]].W.[meA].Q.[Orn].I.L.D.E.H.[O=C([C@@H](N[*:1])C1CCCCC1)[*:2]].Q.R.V.W.G.[am]}$PEPTIDE1,PEPTIDE1,5:R3-9:R3$$$V2.0) | < 400 | –
5 | CC[C@H](C)[C@@H]1NC(=O)[C@@H](NC(=O)[C@H](CCC(N)=O)NC(=O)[C@H](C)N(C)C(=O)[C@H](Cc2c[nH]c3ccccc23)NC(C)=O)CCC(=O)NCCCC[C@@H](C(=O)N[C@@H](Cc2c[nH]cn2)C(=O)N[C@H](C(=O)N[C@@H](CCC(N)=O)C(=O)N[C@@H](CCCNC(=N)N)C(=O)N[C@H](C(=O)N[C@@H](Cc2c[nH]c3ccccc23)C(=O)NCC(N)=O)C(C)C)C2CCCCC2)NC(=O)[C@H](CC(=O)O)NC(=O)[C@H](CC(C)C)NC1=O [compound 426] (HELM PEPTIDE1{[ac].W.[meA].Q.E.I.L.D.K.H.[O=C([C@@H](N[*:1])C1CCCCC1)[*:2]].Q.R.V.W.G.[am]}$PEPTIDE1,PEPTIDE1,5:R3-9:R3$$$V2.0) | < 400 | 0.91
6 | CCCCCCCCC(=O)N[C@@H](Cc1c[nH]c2ccccc12)C(=O)N(C)[C@@H](C)C(=O)N[C@@H](CCC(N)=O)C(=O)N[C@H]1CCC(=O)NCCCC[C@@H](C(=O)N[C@@H](Cc2c[nH]cn2)C(=O)N[C@H](C(=O)N[C@@H](CCC(N)=O)C(=O)N[C@@H](CCCNC(=N)N)C(=O)N[C@H](C(=O)N[C@@H](Cc2c[nH]c3ccccc23)C(=O)NCC(N)=O)C(C)C)C2CCCCC2)NC(=O)[C@H](CC(=O)O)NC(=O)[C@H](CC(C)C)NC(=O)[C@H]([C@@H](C)CC)NC1=O [compound 427] (HELM PEPTIDE1{[CCCCCCCCC(=O)[*:2]].W.[meA].Q.E.I.L.D.K.H.[O=C([C@@H](N[*:1])C1CCCCC1)[*:2]].Q.R.V.W.G.[am]}$PEPTIDE1,PEPTIDE1,5:R3-9:R3$$$V2.0) | < 400 | –
7 | CC[C@H](C)[C@@H]1NC(=O)[C@@H](NC(=O)[C@H](CCC(N)=O)NC(=O)[C@@H]2CCCN2C(=O)[C@H](Cc2c[nH]c3ccccc23)NC(=O)[C@H](CCCNC(=N)N)NC(=O)[C@H](CCCNC(=N)N)NC(C)=O)CCCCNC(=O)CC[C@@H](C(=O)N[C@@H](Cc2c[nH]cn2)C(=O)N[C@H](C(=O)N[C@@H](CCCNC(=N)N)C(=O)N[C@@H](CCCNC(=N)N)C(=O)N[C@H](C(=O)N[C@@H](Cc2c[nH]c3ccccc23)C(=O)N[C@@H](CCCNC(=N)N)C(N)=O)C(C)C)C(C)C)NC(=O)[C@H](CC(=O)O)NC(=O)[C@H](CC(C)C)NC1=O [compound 429] (HELM PEPTIDE1{[ac].R.R.W.P.Q.K.I.L.D.E.H.V.R.R.V.W.R.[am]}$PEPTIDE1,PEPTIDE1,7:R3-11:R3$$$V2.0) | 400 to 1000 | 0.7
8 | CCCCCCCCC(=O)N[C@@H](Cc1c[nH]c2ccccc12)C(=O)N(C)[C@@H](C)C(=O)N[C@@H](CCC(N)=O)C(=O)N[C@H]1CCCCNC(=O)C[C@@H](C(=O)N[C@@H](Cc2c[nH]cn2)C(=O)N[C@H](C(=O)N[C@@H](CCC(N)=O)C(=O)N[C@@H](CCCNC(=N)N)C(=O)N[C@H](C(=O)N[C@@H](Cc2c[nH]c3ccccc23)C(=O)NCC(N)=O)C(C)C)C2CCCCC2)NC(=O)[C@H](CC(=O)O)NC(=O)[C@H](CC(C)C)NC(=O)[C@H]([C@@H](C)CC)NC1=O [compound 431] (HELM PEPTIDE1{[CCCCCCCCC(=O)[*:2]].W.[meA].Q.K.I.L.D.D.H.[O=C([C@@H](N[*:1])C1CCCCC1)[*:2]].Q.R.V.W.G.[am]}$PEPTIDE1,PEPTIDE1,5:R3-9:R3$$$V2.0) | < 400 | –
9 | CC[C@H](C)[C@@H]1NC(=O)[C@@H](NC(=O)[C@H](CCC(N)=O)NC(=O)[C@H](C)N(C)C(C)=O)CCCCNC(=O)CC[C@@H](C(=O)N[C@@H](Cc2c[nH]cn2)C(=O)N[C@H](C(=O)N[C@@H](CCC(N)=O)C(=O)N[C@@H](CCCNC(=N)N)C(=O)N[C@H](C(=O)N[C@@H](Cc2c[nH]c3ccccc23)C(=O)NCC(N)=O)C(C)C)C2CCCCC2)NC(=O)[C@H](CC(N)=O)NC(=O)[C@H](CC(C)C)NC1=O [compound 433] (HELM PEPTIDE1{[ac].[meA].Q.K.I.L.N.E.H.[O=C([C@@H](N[*:1])C1CCCCC1)[*:2]].Q.R.V.W.G.[am]}$PEPTIDE1,PEPTIDE1,4:R3-8:R3$$$V2.0) | 400 to 1000 | 0.7
